Test results as given in patent US20060111341A1, “Use of galanthamine and the derivatives thereof in the production of medicaments” (priority 2003, published 2006).

Legend:
Acetylcholinesterase = Acetylcholinesterase (Homo sapiens, UniProt P22303); assay: biochemical
Butyrylcholinesterase = Butyrylcholinesterase (Homo sapiens, UniProt P06276); assay: biochemical
Sequence of Butyrylcholinesterase (P06276 29-602): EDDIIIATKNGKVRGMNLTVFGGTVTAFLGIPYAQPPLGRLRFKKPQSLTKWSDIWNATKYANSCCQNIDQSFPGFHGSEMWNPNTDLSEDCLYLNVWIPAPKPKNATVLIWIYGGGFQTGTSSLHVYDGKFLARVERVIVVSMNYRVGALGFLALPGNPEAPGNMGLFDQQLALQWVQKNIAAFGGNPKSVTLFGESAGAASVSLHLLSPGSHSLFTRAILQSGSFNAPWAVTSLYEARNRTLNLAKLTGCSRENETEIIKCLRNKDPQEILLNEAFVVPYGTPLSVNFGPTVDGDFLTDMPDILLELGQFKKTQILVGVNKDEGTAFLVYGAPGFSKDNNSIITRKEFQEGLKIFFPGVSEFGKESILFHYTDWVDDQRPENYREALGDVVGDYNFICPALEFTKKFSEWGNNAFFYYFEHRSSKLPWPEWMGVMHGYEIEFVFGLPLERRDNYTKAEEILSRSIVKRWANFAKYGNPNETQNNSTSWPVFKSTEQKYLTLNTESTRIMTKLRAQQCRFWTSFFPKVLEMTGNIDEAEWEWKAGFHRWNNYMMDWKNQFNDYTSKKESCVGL

Sequence of Acetylcholinesterase (P22303 32-614): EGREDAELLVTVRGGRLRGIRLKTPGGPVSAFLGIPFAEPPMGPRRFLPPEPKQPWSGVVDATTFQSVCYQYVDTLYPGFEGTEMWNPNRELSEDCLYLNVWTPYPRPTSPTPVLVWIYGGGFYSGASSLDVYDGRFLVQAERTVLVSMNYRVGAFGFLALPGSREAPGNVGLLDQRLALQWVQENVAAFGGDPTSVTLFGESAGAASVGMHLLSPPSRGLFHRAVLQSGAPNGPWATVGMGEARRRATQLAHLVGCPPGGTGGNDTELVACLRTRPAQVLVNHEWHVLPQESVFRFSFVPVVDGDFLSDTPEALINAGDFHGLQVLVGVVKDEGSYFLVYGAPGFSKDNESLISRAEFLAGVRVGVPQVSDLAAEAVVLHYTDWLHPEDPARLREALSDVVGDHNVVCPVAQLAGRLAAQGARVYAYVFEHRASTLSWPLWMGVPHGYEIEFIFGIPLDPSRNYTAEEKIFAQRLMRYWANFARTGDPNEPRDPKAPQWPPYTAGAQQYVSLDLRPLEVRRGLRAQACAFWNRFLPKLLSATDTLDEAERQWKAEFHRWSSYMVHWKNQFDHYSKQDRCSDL

Row | SMILES | IC50 (Acetylcholinesterase) | IC50 (Butyrylcholinesterase)
1 | COc1ccc2c3c1O[C@H]1C[C@@H](O)C=C[C@@]31CCN(CCC(=O)O)C2 [Nr 120] | 42 µM | 40 µM
2 | COc1ccc2c3c1OC1C[C@@H](O)C=CC31CCN(CCCN)C2 (mixture of isomers) [Nr 90] | 3.4 µM | 11 µM
3 | COc1ccc2c3c1O[C@H]1C[C@@H](O)C=C[C@@]31CCN(C(=S)Oc1ccccc1)C2 [Nr 149] | 7.2 µM | > 100 µM
4 | COc1ccc2c3c1O[C@H]1C[C@@H](O)C=C[C@@]31CCN(C1CCN(C(=O)c3ccccc3)CC1)C2 [Nr 148] | 24 µM | 3 µM
5 | COc1ccc2c3c1O[C@H]1C[C@@H](O)C=C[C@@]31CCN(C(=O)OC(C)(C)C)C2 [Nr 139] | 23 µM | > 100 µM
6 | COc1ccc2c3c1O[C@H]1C[C@@H](O)C=C[C@@]31CCN(c1ccccc1)C2 [Nr 123] | 0.5 µM | 0.24 µM
7 | COc1ccc2c3c1O[C@H]1C[C@@H](O)C=C[C@@]31CCN(CCCN1CC3CC1CN3c1ccc(F)cc1)C2 (stereo partly shown) [Nr 142] | 3 µM | 2.4 µM
8 | C#CC[N+]1(C)CC[C@@]23C=C[C@H](O)C[C@@H]2Oc2c(OC)ccc(c23)C1 (stereo partly shown) [Nr 16] | 1.4 µM | 1.7 µM
9 | COc1ccc2c3c1OC1C[C@@H](O)C=CC31CCN(CCC(=O)NC(C)C)C2 (mixture of isomers) [Nr 109] | 54.5 µM | 36 µM
10 | COc1cc(Br)c2c3c1O[C@@H]1C[C@H](O)C=C[C@]31CCN(C(=O)CCN1CCCC1)C2 [Nr 271] | > 100 µM | 66 µM
11 | COc1cc(Br)c2c3c1OC1C[C@@H](O)C=CC31CCN(CC(N)=O)C2 (mixture of isomers) [Nr 27] | > 100 µM | 15 µM
12 | COc1ccc2c3c1OC1C[C@@H](O)C=CC31CCN(CCCN1CC3CC1CN3c1ccc(F)cc1)C2 (mixture of isomers) [Nr 61] | 5.2 µM | 5 µM
13 | COc1cc(C)c2c3c1OC1C[C@H](O)C=CC31CC[N+](C)(Cc1ccccc1)C2 (mixture of isomers) [Nr 106] | > 100 µM | 3 µM
14 | COc1ccc2c3c1O[C@H]1C[C@@H](O)C=C[C@@]31CC[N+](C)(CC=C(C)C)C2 (stereo partly shown) [Nr 54] | 0.2 µM | 0.21 µM
15 | CC(C)NC(=O)N1CC[C@@]23C=C[C@H](O)C[C@@H]2Oc2c(O)ccc(c23)C1 [Nr 130] | 6.3 µM | 60 µM
16 | COc1ccc2c3c1OC1C[C@@H](O)C=CC31CCN(C(=O)Nc1ccc3ccccc3c1)C2 (mixture of isomers) [Nr 88] | 36 µM | > 100 µM
17 | CN1CC[C@@]23C=C[C@H](O)C[C@@H]2Oc2c(Oc4ccccc4)ccc(c23)C1 [Nr 118] | 21 µM | 3.4 µM
18 | CCOC(=O)CCN1CCC23C=C[C@H](O)CC2Oc2c(OC)cc(Br)c(c23)C1 (mixture of isomers) [Nr 55] | > 100 µM | 19 µM
19 | COc1cc(N)c2c3c1O[C@H]1C[C@@H](O)C=C[C@@]31CCN(C)C2 [Nr 48] | 77 µM | 4.9 µM
20 | C=CC[N+]1(C)CCC23C=C[C@@H](O)CC2Oc2c(OC)cc(C)c(c23)C1 (mixture of isomers) [Nr 104] | > 100 µM | 52 µM
21 | C=CCCC(=O)N1CC[C@@]23C=C[C@H](O)C[C@@H]2Oc2c(OC)ccc(c23)C1 [Nr 147] | 8.4 µM | 2.6 µM
22 | COc1ccc2c3c1OC1C[C@@H](O)C=CC31CCN(C(=O)NC(C)C)C2 (mixture of isomers) [Nr 75] | 4.2 µM | > 100 µM
23 | COc1ccc2c3c1OC1C[C@@H](O)C=CC31CCN(c1ccnc(OCCCN(C)C)n1)C2 (mixture of isomers) [Nr 96] | 7.4 µM | 36 µM
24 | COc1cc2c(cc1OC)C(=O)C(CCCCCN1CC[C@@]34C=C[C@H](O)C[C@@H]3Oc3c(OC)ccc(c34)C1)C2 (stereo partly shown) [Nr 158] | 0.0052 µM | 0.24 µM

Row | SMILES | IC50 (Acetylcholinesterase) | IC50 (Butyrylcholinesterase)
25 | COc1ccc2c3c1OC1C[C@@H](O)C=CC31CCN(c1nccc(Cl)n1)C2 (mixture of isomers) [Nr 89] | 66 µM | > 100 µM
26 | COc1ccc2c3c1OC1C[C@@H](O)C=CC31CCN(CCCO)C2 (mixture of isomers) [Nr 81] | 7.2 µM | 21 µM
27 | COc1ccc2c3c1OC1C[C@@H](O)C=CC31CCN(Cc1ccccc1)C2 (mixture of isomers) [Nr 41] | 0.7 µM | 0.65 µM
28 | COc1ccc2c3c1O[C@H]1C[C@@H](O)C=C[C@@]31CCN(CCN)C2 [Nr 141] | 1.3 µM | 2.1 µM
29 | COc1cc([N+](=O)[O-])c2c3c1O[C@H]1C[C@@H](O)C=C[C@@]31CCN(C)C2 [Nr 45] | > 100 µM | 25 µM
30 | COc1ccc2c3c1O[C@H]1C[C@@H](O)C=C[C@@]31CCN(CC(=O)N1CC3CC1CN3c1ccccc1)C2 (stereo partly shown) [Nr 143] | 8.4 µM | 2.4 µM
31 | C=CCN1CCC23C=C[C@H](O)CC2Oc2c(OC)ccc(c23)C1 (mixture of isomers) [Nr 40] | 3.3 µM | 3.1 µM
32 | C#CC[N+]1(C)CCC23C=C[C@@H](O)CC2Oc2c(OC)cc(C)c(c23)C1 (mixture of isomers) [Nr 103] | 59 µM | 45 µM
33 | COc1ccc2c3c1OC1C[C@@H](O)C=CC31CCN(C(=O)Nc1ccc(Cl)cc1)C2 (mixture of isomers) [Nr 92] | 24 µM | > 100 µM
34 | C=CCN1CCC23C=C[C@H](O)CC2Oc2c(OC)cc(Br)c(c23)C1 (mixture of isomers) [Nr 35] | > 100 µM | 2.6 µM
35 | COc1ccc2c3c1O[C@H]1C[C@@H](O)C=C[C@@]31CCN(C(N)=O)C2 [Nr 113] | 44 µM | > 100 µM
36 | COc1cc(C)c2c3c1OC1C[C@@H](O)C=CC31CCN(CCN1CCOCC1)C2 (mixture of isomers) [Nr 65] | > 100 µM | 5.2 µM
37 | COc1ccc2c3c1O[C@H]1C[C@@H](O)C=C[C@@]31CCN(C(=O)NC(C)(C)C)C2 [Nr 115] | 2.5 µM | 7 µM
38 | CCCCNC(=O)O[C@H]1C=C[C@@]23CCN(C)Cc4ccc(OC)c(c42)O[C@H]3C1 [Nr 1] | > 100 µM | 4.8 µM
39 | CCCCCCN1CCC23C=C[C@H](O)CC2Oc2c(OC)cc(Br)c(c23)C1 (mixture of isomers) [Nr 15] | 40 µM | 0.45 µM
40 | COc1cc2c(cc1OC)C(=O)C(CCCCN1CC[C@@]34C=C[C@H](O)C[C@@H]3Oc3c(OC)ccc(c34)C1)C2 (stereo partly shown) [Nr 154] | 0.02 µM | 0.8 µM
41 | CNC(=S)N1CC[C@@]23C=C[C@H](O)C[C@@H]2Oc2c(OC)ccc(c23)C1 [Nr 129] | 18.5 µM | 63 µM
42 | COc1ccc2c3c1OC1C[C@@H](O)C=CC31CCN(c1nc(OCCCN(C)C)nc(OCCCN(C)C)n1)C2 (mixture of isomers) [Nr 94] | 70 µM | 40 µM
43 | COc1cc(C)c2c3c1OC1C[C@@H](O)C=CC31CCN(CCCN1CCCCC1)C2 (mixture of isomers) [Nr 64] | 46 µM | 0.6 µM
44 | CNC(=S)N1CCC23C=C[C@H](O)CC2Oc2c(OC)ccc(c23)C1 (mixture of isomers) [Nr 73] | 23 µM | 30 µM
45 | C=C(C)C[N+]1(C)CCC23C=C[C@H](O)CC2Oc2c(OC)cc(C)c(c23)C1 (mixture of isomers) [Nr 67] | 70 µM | 2.4 µM
46 | C=CCNC(=S)N1CCC23C=C[C@H](O)CC2Oc2c(OC)ccc(c23)C1 (mixture of isomers) [Nr 91] | 21 µM | > 100 µM
47 | COc1ccc2c3c1O[C@@H]1C[C@H](O)C=C[C@]31CCN(CCCN1CCCCC1)C2 [Nr 153] | 9 µM | 23 µM
